The values that follow come from patent publication US9828385B2, “Spiro-oxazolones” (Hoffmann-La Roche Inc., priority 2014, dated 2017).

The structures appear in SMILES notation.

The target of the experiment is T1, human V1a receptor (Homo sapiens, UniProt P37288).
T1 construct: expressed in transfected cells; host or cells: HEK293 cells, transiently transfected; cell membranes
Description: human V1a receptor binding studies (3H-Vasopressin, SPA beads). The settings on record: membranes of HEK293 cells transiently transfected with human V1a receptor, Ki by Cheng-Prussoff from IC50, read-out: pKi hV1a (converted). In outline:
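Membranes from transiently transfected HEK293 cells expressing cloned human V1a receptor, on yttrium silicate SPA beads, competed against 4 nM 3H-vasopressin (added stock concentration) in Tris buffer with NaCl, KCl, CaCl2, MgCl2 for 1 h at room temperature. Nonspecific binding with cold vasopressin; IC50 by nonlinear fit, Ki via Cheng-Prusoff.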

T1 sequence (P37288 whole entry): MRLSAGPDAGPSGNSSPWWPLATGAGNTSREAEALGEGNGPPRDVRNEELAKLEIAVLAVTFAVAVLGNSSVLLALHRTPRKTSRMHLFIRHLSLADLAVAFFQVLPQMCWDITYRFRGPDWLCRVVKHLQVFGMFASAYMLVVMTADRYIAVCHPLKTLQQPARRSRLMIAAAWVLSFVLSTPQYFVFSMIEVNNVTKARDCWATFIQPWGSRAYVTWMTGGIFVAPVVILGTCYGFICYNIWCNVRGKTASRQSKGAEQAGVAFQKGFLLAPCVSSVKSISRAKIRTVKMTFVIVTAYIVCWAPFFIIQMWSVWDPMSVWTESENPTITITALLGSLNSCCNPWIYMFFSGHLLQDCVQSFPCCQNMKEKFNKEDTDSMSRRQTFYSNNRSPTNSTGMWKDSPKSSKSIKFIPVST

Turning to `CC(c1ccccc1)C1(C)OC(N2CCC3(CC2)OCc2ccccc23)=NC1=O` (single isomer, unassigned; diastereomer a) [Example 106, 5-Methyl-5-(1-phenylethyl)-2-(1′H,3H-spiro[2-benzofuran-1,4′-piperidin]-1′-yl)-1,3-oxazol-4(5H)-one diastereomer a], the Ki is 15.8 nM.

With `O=C1N=C(N2CCC3(CC2)OCc2ccccc23)OC1C(O)c1ccccc1` (single isomer, unassigned) [Example 38, 5-(Hydroxy(phenyl)methyl)-2-(1′H,3H-spiro[2-benzofuran-1,4′-piperidin]-1′-yl)-1,3-oxazol-4(5H)-one diastereomer b, enantiomer A], the Ki was 794 nM. As for `O=C1N=C(N2CCC3(CC2)OCc2ccccc23)OC12CNCc1ccccc1C2` (centres unmarked) [Example 138, 2′-(1′H,3H-Spiro[2-benzofuran-1,4′-piperidin]-1′-yl)-1,2,3,5-tetrahydro-4′H-spiro[2-benzazepine-4,5′-[1,3]oxazol]-4′-one], the Ki was 6.31 nM. Then `O=C1N=C(N2CCC3(CC2)SCc2ccccc23)OC1Cc1ccccc1` (centres unmarked) [Example 33, 5-Benzyl-2-(1′H,3H-spiro[2-benzothiophene-1,4′-piperidin]-1′-yl)-1,3-oxazol-4(5H)-one], with 12.6 nM. Turning to `O=C1OC2(CCN(C3=NC(=O)C4(CCCCC4)O3)CC2)c2ccccc21` [Example 124, 1′-(4-Oxo-1-oxa-3-azaspiro[4.5]dec-2-en-2-yl)-3H-spiro[2-benzofuran-1,4′-piperidin]-3-one], the Ki is 158 nM.

As to `CC1(Cc2ccc(Cl)s2)OC(N2CCC3(CC2)OCc2ccccc23)=NC1=O` (single isomer, unassigned; (-)) [Example 87, (−)-5-[(5-Chlorothiophen-2-yl)methyl]-5-methyl-2-(1′H,3H-spiro[2-benzofuran-1,4′-piperidin]-1′-yl)-1,3-oxazol-4(5H)-one], the Ki was 200 nM. As for `C=C(CC1(CC(=C)C(F)(F)F)OC(N2CCC3(CC2)OCc2ccccc23)=NC1=O)C(F)(F)F` [Example 64, 2-(3H-Spiro[isobenzofuran-1,4′-piperidine]-1′-yl)-5,5-bis(2-(trifluoromethyl)allyl)oxazol-4(5H)-one], the Ki was 12.6 nM. As for `O=C1N=C(N2CCC3(CC2)OCc2ccccc23)OC1C(O)c1ccc(Cl)cc1` (centres unmarked) [Example 40, 5-[(4-Chlorophenyl)(hydroxy)methyl]-2-(1′H,3H-spiro[2-benzofuran-1,4′-piperidin]-1′-yl)-1,3-oxazol-4(5H)-one], the Ki is 3.98 nM. In the case of `CN1Cc2ccccc2CC2(C1)OC(N1CCC3(CC1)OCc1ccccc13)=NC2=O` (centres unmarked) [Example 139, 2-Methyl-2′-(1′H,3H-spiro[2-benzofuran-1,4′-piperidin]-1′-yl)-1,2,3,5-tetrahydro-4′H-spiro[2-benzazepine-4,5′-[1,3]oxazol]-4′-one], the Ki was 1.26 nM.

In the case of `O=C1N=C(N2CCC3(CC2)OCc2ccccc23)OC1CC1CCCC1` (single isomer, unassigned; enantiomer a) [Example 13, 5-(Cyclopentylmethyl)-2-(1′H,3H-spiro[2-benzofuran-1,4′-piperidin]-1′-yl)-1,3-oxazol-4(5H)-one enantiomer A], the Ki is 0.794 nM. Take `O=C1N=C(N2CCC3(CC2)OCc2ccccc23)OC12CC1CCCCCC1C2` (centres unmarked) [Example 140, 2′-(1′H,3H-Spiro[2-benzofuran-1,4′-piperidin]-1′-yl)-3,3a,4,5,6,7,8,8a-octahydro-1H,4′H-spiro[azulene-2,5′-[1,3]oxazol]-4′-one]: the Ki is 0.631 nM. For `CC(C)(C)[Si](C)(C)OCC1=CCC2(C1)OC(N1CCC3(CC1)OCc1ccccc13)=NC2=O` (centres unmarked) [Example 118, 7-({[tert-Butyl(dimethyl)silyl]oxy}methyl)-2-(1′H,3H-spiro[2-benzofuran-1,4′-piperidin]-1′-yl)-1-oxa-3-azaspiro[4.4]nona-2,7-dien-4-one], the Ki is 316 nM. The figure for `CC1(Cc2ccc(Cl)s2)OC(N2CCC3(CC2)OCc2ccccc23)=NC1=O` (single isomer, unassigned; (+)) [Example 86, (+)-5-[(5-Chlorothiophen-2-yl)methyl]-5-methyl-2-(1′H,3H-spiro[2-benzofuran-1,4′-piperidin]-1′-yl)-1,3-oxazol-4(5H)-one] is 1.26 nM; for `CC1(Cc2ccc(Cl)cc2)OC(N2CCC3(CC2)OCc2ccccc23)=NC1=O` (centres unmarked) [Example 75, 5-(4-Chlorobenzyl)-5-methyl-2-(1′H,3H-spiro[2-benzofuran-1,4′-piperidin]-1′-yl)-1,3-oxazol-4(5H)-one] it is 3.98 nM. `O=C1N=C(N2CCC3(CC2)OCc2ccccc23)O[C@H]1Cc1ccccc1` [Example 19, (−)-(5S)-5-Benzyl-2-(1′H,3H-spiro[2-benzofuran-1,4′-piperidin]-1′-yl)-1,3-oxazol-4(5H)-one]: the Ki is 25.1 nM.

For the compound `C=CCC1(CC(=C)CO[Si](C)(C)C(C)(C)C)OC(N2CCC3(CC2)OCc2ccccc23)=NC1=O` (centres unmarked) [Example 65, 5-[2-({[tert-Butyl(dimethyl)silyl]oxy}methyl)prop-2-en-1-yl]-5-(prop-2-en-1-yl)-2-(1′H,3H-spiro[2-benzofuran-1,4′-piperidin]-1′-yl)-1,3-oxazol-4(5H)-one], the Ki is 63.1 nM. Consider `CC1(C(O)c2ccc(Cl)cc2)OC(N2CCC3(CC2)OC(=O)c2ccccc23)=NC1=O` (centres unmarked) [Example 93, 1′-{5-[(4-Chlorophenyl)(hydroxy)methyl]-5-methyl-4-oxo-4,5-dihydro-1,3-oxazol-2-yl}-3H-spiro[2-benzofuran-1,4′-piperidin]-3-one], for which the Ki is 126 nM. `CCCC1OC(N2CCC3(CC2)OCc2ccccc23)=NC1=O` (centres unmarked) [Example 1, 5-Propyl-2-(1′H,3H-spiro[2-benzofuran-1,4′-piperidin]-1′-yl)-1,3-oxazol-4(5H)-one]: the Ki was 79.4 nM. For the compound `O=C1OC2(CCN(C3=NC(=O)C(CC4CCCC4)O3)CC2)c2ccccc21` (single isomer, unassigned; enantiomer a) [Example 15, 1′-[5-(Cyclopentylmethyl)-4-oxo-4,5-dihydro-1,3-oxazol-2-yl]-3H-spiro[2-benzofuran-1,4′-piperidin]-3-one enantiomer A], the Ki was 2.51 nM.

For the compound `C=CCC1(CC(=C)Br)OC(N2CCC3(CC2)OCc2ccccc23)=NC1=O` (centres unmarked) [Example 63, 5-(2-Bromoprop-2-en-1-yl)-5-(prop-2-en-1-yl)-2-(1′H,3H-spiro[2-benzofuran-1,4′-piperidin]-1′-yl)-1,3-oxazol-4(5H)-one], the Ki is 12.6 nM. As to `O=C1N=C(N2CCC3(CC2)OCc2ccccc23)OC12CCS(=O)(=O)CC2` [Example 133, 2-(1′H,3H-Spiro[2-benzofuran-1,4′-piperidin]-1′-yl)-1-oxa-8-thia-3-azaspiro[4.5]dec-2-en-4-one 8,8-dioxide], the Ki is 126 nM. Take `O=C1OC2(CCN(C3=NC(=O)C(CC4CCCC4)O3)CC2)c2ccccc21` (single isomer, unassigned; enantiomer b) [Example 16, 1′-[5-(Cyclopentylmethyl)-4-oxo-4,5-dihydro-1,3-oxazol-2-yl]-3H-spiro[2-benzofuran-1,4′-piperidin]-3-one enantiomer B]: the Ki was 12.6 nM.

Turning to `CC1(Cc2ccccc2)OC(N2CCC3(CC2)OC(=O)c2ccccc23)=NC1=O` (single isomer, unassigned; enantiomer a) [Example 72, 1′-[5-Benzyl-5-methyl-4-oxo-4,5-dihydro-1,3-oxazol-2-yl]-3H-spiro[2-benzofuran-1,4′-piperidin]-3-one enantiomer A], the Ki was 25.1 nM.
